Values of other authors in US20020055536A1, “System and method for structure-based drug design that includes accurate prediction of binding free energy” (priority 1996, published 2002).

Key:
HIV-1 protease = biological target: T1, HIV-1 protease (Human immunodeficiency virus type 1 group M subtype B, UniProt P04585)
T1 construct: The following HIV-1 protease ligands were tested by the method of the present invention

[1] = biological target: purine nucleoside phosphorylase; conditions: for IC50: 1 mM phosphate, Ki or IC50 not distinguished; for Phosphate sensitivity: change of binding constant upon increase of phosphate to 50 mM

CC(C)C(O)c1cnc(C(Cc2ccccc2)CC(O)C(Cc2ccccc2)NC(=O)OC(C)(C)C)[nH]1 [B Boc iPr(S)]
Ki (HIV-1 protease): 2.7 µM

CC(=O)c1cnc(C(Cc2ccccc2)CC(O)C(Cc2ccccc2)NC(=O)OC(C)(C)C)[nH]1 (centres unmarked) [A Boc Me]
Ki (HIV-1 protease): 0.37 µM

Nc1nc2c(ncn2COCCOP(=O)(O)OP(=O)(O)OP(=O)(O)O)c(=O)[nH]1 [acyclovirTP]
IC50 [1]: 0.31 µM | Phosphate sensitivity [1]: high (The highly sensitive molecules are affected in some instances by a factor of 140)

C=CC(C)(C)C(=O)c1cnc(C(Cc2ccccc2)CC(O)C(Cc2ccccc2)NC(=O)OC(C)(C)C)[nH]1 (centres unmarked) [A Boc CMe2CHCH2]
Ki (HIV-1 protease): 0.27 µM

CC(O)c1cnc(C(Cc2ccccc2)CC(O)C(Cc2ccccc2)NC(=O)OC(C)(C)C)[nH]1 [B Boc Me(S)]
Ki (HIV-1 protease): 13.3 µM

CC(C)C(O)c1cnc(C(Cc2ccccc2)CC(O)C(Cc2ccccc2)NC(=O)OC(C)(C)C)[nH]1 [B Boc i-Pr(R)]
Ki (HIV-1 protease): 2.7 µM

Nc1nc2c(ncn2COCCO)c(=O)[nH]1 [acyclovir]
IC50 [1]: 200 µM | Phosphate sensitivity [1]: low (those whose binding constant changes by a factor of 15 or less upon increase of the concentration of phosphate to 50 mM)

Nc1nc2c(ncn2[C@H]2C[C@H](O)[C@@H](COP(=O)(O)O)O2)c(=O)[nH]1 [dGMP]
IC50 [1]: 300 µM | Phosphate sensitivity [1]: low (those whose binding constant changes by a factor of 15 or less upon increase of the concentration of phosphate to 50 mM)

CC(C)C(=O)c1cnc(C(Cc2ccccc2)CC(O)C(Cc2ccccc2)NC(=O)OC(C)(C)C)[nH]1 (centres unmarked) [A Boc i-Pr]
Ki (HIV-1 protease): 0.083 µM

CCCC(=O)c1cnc(C(Cc2ccccc2)CC(O)C(Cc2ccccc2)NC(=O)OC(C)(C)C)[nH]1 (centres unmarked) [A Boc n-Pr]
Ki (HIV-1 protease): 0.15 µM

Nc1nc2c(ncn2[C@@H]2O[C@H](COP(=O)(O)OP(=O)(O)OP(=O)(O)O)[C@@H](O)[C@H]2O)c(=O)[nH]1 [GTP]
IC50 [1]: 490 µM | Phosphate sensitivity [1]: low (those whose binding constant changes by a factor of 15 or less upon increase of the concentration of phosphate to 50 mM)

Nc1nc2c(ncn2[C@@H]2O[C@H](COP(=O)(O)O)[C@@H](O)[C@H]2O)c(=O)[nH]1 [GMP]
IC50 [1]: 530 µM | Phosphate sensitivity [1]: low (those whose binding constant changes by a factor of 15 or less upon increase of the concentration of phosphate to 50 mM)

Nc1nc(O)c2ncn(COCCOP(=O)(O)OP(=O)(O)O)c2n1 [acyclovirDP]
Phosphate sensitivity [1]: high (The highly sensitive molecules are affected in some instances by a factor of 140)

CCC(=O)c1cnc(C(Cc2ccccc2)CC(O)C(Cc2ccccc2)NC(=O)OC(C)(C)C)[nH]1 (centres unmarked) [A Boc Et]
Ki (HIV-1 protease): 0.092 µM

CC(C)(C)OC(=O)NC(Cc1ccccc1)C(O)CC(Cc1ccccc1)c1ncc(C=O)[nH]1 (centres unmarked) [A Boc H]
Ki (HIV-1 protease): 3.5 µM

Nc1nc2c(ncn2[C@H]2C[C@H](O)[C@@H](COP(=O)(O)OP(=O)(O)OP(=O)(O)O)O2)c(=O)[nH]1 [dGTP]
IC50 [1]: 32 µM | Phosphate sensitivity [1]: high (The highly sensitive molecules are affected in some instances by a factor of 140)

CC(C)C(NC(=O)C(Cc1ccccc1)CC(O)C(Cc1ccccc1)NC(=O)OC(C)(C)C)c1nnc[nH]1 (centres unmarked) [D N]
Ki (HIV-1 protease): 0.0042 µM

CC(C)C(NC(=O)C(Cc1ccccc1)CC(O)C(Cc1ccccc1)NC(=O)OC(C)(C)C)c1ncc[nH]1 (centres unmarked) [D CH]
Ki (HIV-1 protease): 0.018 µM

Nc1nc2c(ncn2[C@@H]2O[C@H](COP(=O)(O)OP(=O)(O)O)[C@@H](O)[C@H]2O)c(=O)[nH]1 [GDP]
IC50 [1]: 360 µM | Phosphate sensitivity [1]: low (those whose binding constant changes by a factor of 15 or less upon increase of the concentration of phosphate to 50 mM)

Nc1nc2c(ncn2COCCOP(=O)(O)O)c(=O)[nH]1 [acyclovirMP]
IC50 [1]: 6.6 µM | Phosphate sensitivity [1]: low (those whose binding constant changes by a factor of 15 or less upon increase of the concentration of phosphate to 50 mM)

CC(O)c1cnc(C(Cc2ccccc2)CC(O)C(Cc2ccccc2)NC(=O)OC(C)(C)C)[nH]1 [B Boc Me(R)]
Ki (HIV-1 protease): 13.3 µM
